According to PMC8348310, “Antioxidants Isolated from Elaeagnus umbellata (Thunb.) Protect against Bacterial Infections and Diabetes in Streptozotocin-Induced Diabetic Rat Model” (Molecules, 2021):
≈ marks a conversion by molar mass, not a printed value. Where “and” joins values, the source holds several entries; their conditions need not be identical. Identical values can stand only once.

Key:
[1] = DPPH free radical scavenging assay; format: biochemical; conditions: for DPPH IC50: linear regression of % scavenging vs concentration
Method: According to the Brand-Williams assay DPPH (2, 2-diphenyl-1-picrylhydrazyl) free radical scavenging activity of morin was determined. DPPH and compounds stock solutions (1 mg/mL) were prepared in 100 mL methanol with serial dilutions of […], 62.5, 250, 500, and 1000 µg/mL. After that, 0.1 mL morin was mixed with 3.0 mL DPPH solution and incubated at 23 °C for 30 min. Standard ascorbic acid solution was also prepared in the same way using as a positive control. Finally, absorbance was measured at 517 nm via UV spectrophotometer. Results were taken in a set of three experiments and represented as mean ± SEM. Percent free radicals scavenging potential was calculated according to the following Equation (1): (1) % Free radicals Scavenging potential = Blank sample absorbance−sample absorbance/Blank sample absorbance×100
(§1) All the in vitro and in vivo experiments were analyzed in three replicates and determined as mean ± SEM. Student’s t-test and one way ANOVA followed by Dunnett’s post hoc multiple comparison test was used. p ≤ 0.05 were considered as significant. Linear regression analysis was used to calculate the IC50 value for % DPPH, ABTS, α-amylase, and α-glucosidase inhibition against the different concentrations of the test samples by means of Excel program 2007.

[2] = ABTS free radical scavenging assay; format: biochemical; conditions: for ABTS IC50: linear regression of % scavenging vs concentration
Method: ABTS (2,2′-azinobis-3-ethylbenzothiazoline-6-sulfonic acid) free radicals inhibition potential were determined according to the reported assay. ABTS solution was prepared in methanol (100 mL). In total, 300 µL of compound (morin, phloroglucinol, and 1-hexyl benzene) was mixed thoroughly with 3.0 mL ABTS solution and incubated for six minutes. Finally, the absorbance was measured through UV spectrophotometer using ascorbic acid as positive control. Percent ABTS free radicals scavenging potential was calculated using the equation No. 1.
as §1

Bacillus cereus = test: Agar well diffusion, zone of inhibition; format: cell-based; conditions: 37 °C, 24 h; for Zone of Inhibition: 100 µg/mL
Method: (§2) Antibacterial potential of isolated compound was investigated against both Gram-positive and Gram-negative bacterial strains; Escherichia coli, Bacillus cereus, Salmonella typhi, Klebsiella pneumonia, Pseudomonas aeruginosa and Proteus mirabilis. Bacterial strains were provided by the Department of Pharmacy, University of Malakand, Khyber Pakhtunkhwa, Pakistan, and were kept at 4 °C in agar slants in freeze-dried condition until further use.
(§3) Both Gram-positive and Gram-negative bacterial strains Escherichia coli, Bacillus cereus, Salmonella typhi, Klebsiella pneumonia, Pseudomonas aeruginosa and Proteus mirabilis organism viable count per mL in the stock suspension was determined using surface viable counting technique. About 10^8–10^9 colony-forming units (CFU) per mL were used as inoculum in subsequent experiments. A fresh stock suspension was used each time.
(§4) The antibacterial activity of the isolated compounds (morin, phloroglucinol, and 1-hexyl benzene) was determined using agar well diffusion method. Muller–Hinton agar media was prepared and autoclaved at 15 lbs pressure for 20 min and cooled to 45 °C. The standard bacterial stock suspension 10^8–10^9 CFU/mL were spread on Muller–Hinton agar plates and five wells (3 mm in diameter; four on side and one in center) were punched in plates using a sterile cork borer. The entire wells were filled with 100 µL of the isolated compounds (stock solution: 1 mg/mL) using microtiter-pipette and allowed to diffuse at room temperature for 2 h. The plates were incubated at 37 °C for 24 h. In the center hole, Imipenem was added which served as positive control. Simultaneous, addition of an equal concentration of DMSO solvent instead of isolated compounds was used as blank. After incubation, the zones of inhibition were measured in millimeters (mm) and mean values were calculated. The experiments were performed in triplicates.

Escherichia coli = test: Agar well diffusion, zone of inhibition; format: cell-based; conditions: 37 °C, 24 h; for Zone of Inhibition: 100 µg/mL
Method: as §2, §3, §4

Klebsiella pneumonia = test: Agar well diffusion, zone of inhibition; format: cell-based; conditions: 37 °C, 24 h; for Zone of Inhibition: 100 µg/mL; for zone of inhibition at 100 µg/mL: Klebsiella pneumoniae
Method: as §2, §3, §4

Proteus mirabilis = test: Agar well diffusion, zone of inhibition; format: cell-based; conditions: 37 °C, 24 h; for Zone of Inhibition: 100 µg/mL
Method: as §2, §3, §4

Pseudomonas aeruginosa = test: Agar well diffusion, zone of inhibition; format: cell-based; conditions: 37 °C, 24 h; for Zone of Inhibition: 100 µg/mL
Method: as §2, §3, §4

Salmonella typhi [3] = test: Agar well diffusion, zone of inhibition; format: cell-based; conditions: 24 h; for zone of inhibition at 100 µg/mL: Salmonella enterica, TYPHI; for Zone of Inhibition: Salmonella typhi, 100 µg/mL, 37 °C
Salmonella typhi [4] = test: Broth dilution MIC determination; format: cell-based; conditions: Salmonella enterica, 24 h, read-out: Minimum Inhibitory Concentrations
Staphylococcus aureus = test: Broth dilution MIC determination; format: cell-based; conditions: 37 °C, 24 h, read-out: Minimum Inhibitory Concentrations
Method: Stock solutions of morin, phloroglucinol, and 1-hexyl benzene were prepared in dimethylsulphoxide (DMSO). […] Sterile centrifuge tubes were arranged in sets of rows for each bacterial inoculum to cover the different concentration of isolated compounds in triplicate. […] A sterility control tube and a growth control tube were also incubated (for each strain). The tubes were incubated at 37 °C for 24 h. After incubation, 40 μL of a 0.4 mg/mL solution of para iodonitrotetrazolium (INT) chloride was added to each tube as an indicator of microbial growth. […] The evaluation for the inhibition of microbial growth was based on the color change of INT to pink, while no color change indicates the absence of growth. The MIC is the lowest concentration of the compounds at which there is no visible growth in the tubes. The concentration that inhibited bacterial growth completely (the first clear tube) was taken as the MIC value. Experiments were performed in triplicate and mean values are presented. […] A negative control experiment was conducted using only DMSO.

SMILES | % DPPH Scavenging Mean ± SEM ([1]; 31.05 µg/mL) [%] | % DPPH Scavenging Mean ± SEM ([1]; 62.5 µg/mL) [%] | % DPPH Scavenging Mean ± SEM ([1]; 250 µg/mL) [%] | % DPPH Scavenging Mean ± SEM ([1]; 500 µg/mL) | % DPPH Scavenging Mean ± SEM ([1]; 1000 µg/mL) | DPPH IC50 [1] [µg/mL] | % ABTS Scavenging Mean ± SEM ([2]; 31.05 µg/mL) [%] | % ABTS Scavenging Mean ± SEM ([2]; 62.5 µg/mL) [%] | % ABTS Scavenging Mean ± SEM ([2]; 125 µg/mL) [%] | % ABTS Scavenging Mean ± SEM ([2]; 250 µg/mL) | % ABTS Scavenging Mean ± SEM ([2]; 500 µg/mL) | % ABTS Scavenging Mean ± SEM ([2]; 1000 µg/mL) | ABTS IC50 [2] [µg/mL] | Zone of Inhibition (Bacillus cereus) [mm] | zone of inhibition at 100 µg/mL (Bacillus cereus) [mm] | Zone of Inhibition (Escherichia coli) [mm] | zone of inhibition at 100 µg/mL (Escherichia coli) [mm] | Zone of Inhibition (Klebsiella pneumonia) [mm] | zone of inhibition at 100 µg/mL (Klebsiella pneumonia) [mm] | Zone of Inhibition (Proteus mirabilis) [mm] | other results
CCCCCCc1ccccc1 [1-Hexyl benzene, 1-hexylbenzene] | 28 ± 1.1 | 35 ± 0.4 | 46 ± 0.5 | 53 ± 2.1 % | 59 ± 1.5 % | 118 | 19 ± 1.4 | 26 ± 0.5 | 31 ± 1.0 | 39 ± 1.5 % | 47 ± 2.2 % | 55 ± 1.1 % | 129 | 8.5 ± 0.1 | 8.5 ± 0.1 | 9.3 ± 1.1 | 9.3 ± 1.1 | 6.3 ± 0.5 | 6.3 ± 0.5 | 4.5 ± 1.5 | zone of inhibition at 100 µg/mL (Proteus mirabilis): 4.5 ± 1.5 mm; Zone of Inhibition (Pseudomonas aeruginosa): 5.5 ± 0.5 mm; zone of inhibition at 100 µg/mL (Pseudomonas aeruginosa): 5.5 ± 0.5 mm; zone of inhibition at 100 µg/mL (Salmonella typhi [3]): 7.4 ± 1.2 mm; Zone of Inhibition (Salmonella typhi [3]): 7.4 ± 1.2 mm; MIC (Salmonella typhi [4]): 112 ± 1.6 µg/mL (≈ 690 µM); MIC (Staphylococcus aureus): 205 ± 2.1 µg/mL (≈ 1260 µM)
O=c1c(O)c(-c2ccc(O)cc2O)oc2cc(O)cc(O)c12 [Morin, 2-(2,4-Dihydroxyphenyl)-3,5,7-trihydroxychromen-4-one] | 54 ± 0.5 | 59 ± 1.3 | 76 ± 1.0 | 83 ± 0.5 ^ns % | 88± 1.1% and 88 ± 1.1 ^ns % | 37 | 45 ± 0.5 | 57 ± 1.4 | 64 ± 1.2 | 75 ± 0.5 ^ns % | 80 ± 1.0 ^ns % | 88 ± 1.0% and 88 ± 1.0 ^ns % | 40 | 17 ± 0.1 | 17 ± 0.1 | 19 ± 1.1 | 19 ± 1.1 | 15 ± 0.5 | 15 ± 0.5 | 11 ± 1.5 | zone of inhibition at 100 µg/mL (Proteus mirabilis): 11 ± 1.5 mm; Zone of Inhibition (Pseudomonas aeruginosa): 14 ± 0.5 mm; zone of inhibition at 100 µg/mL (Pseudomonas aeruginosa): 14 ± 0.5 mm; zone of inhibition at 100 µg/mL (Salmonella typhi [3]): 16 ± 1.2 mm; Zone of Inhibition (Salmonella typhi [3]): 16 ± 1.2 mm; MIC (Salmonella typhi [4]): 28 ± 1 µg/mL (≈ 92.6 µM); MIC (Staphylococcus aureus): 68 ± 1.3 µg/mL (≈ 225 µM)
Oc1cc(O)cc(O)c1 [Phloroglucinol, Benzene-1,3,5-triol] | 32 ± 0.5 | 36 ± 1.1 | 51 ± 1.0 | 57 ± 1.0 % | 67 ± 0.4 % | 105 | 25 ± 1.0 | 33 ± 0.5 | 39 ± 1.2 | 45 ± 1.0 % | 51 ± 0.5 % | 64 ± 1.1 % | 112 | 13 ± 1.2 | 13 ± 1.2 | 15 ± 0.3 | 15 ± 0.3 | 11 ± 0.5 | 11 ± 0.5 | 7.5 ± 0.2 | zone of inhibition at 100 µg/mL (Proteus mirabilis): 7.5 ± 0.2 mm; Zone of Inhibition (Pseudomonas aeruginosa): 10 ± 1.1 mm; zone of inhibition at 100 µg/mL (Pseudomonas aeruginosa): 10 ± 1.1 mm; zone of inhibition at 100 µg/mL (Salmonella typhi [3]): 12 ± 1.1 mm; Zone of Inhibition (Salmonella typhi [3]): 12 ± 1.1 mm; MIC (Salmonella typhi [4]): 175 ± 2 µg/mL (≈ 1390 µM); MIC (Staphylococcus aureus): 192 ± 2.3 µg/mL (≈ 1520 µM)
